C=C(C)[C@@H]1CC[C@]2(C(=O)O)CC[C@]3(C)[C@H](CC[C@@H]4[C@@]5(C)CCC(=O)C(C)(C)[C@@H]5CC[C@]43C)[C@@H]12
solubility (mole fraction)
Settings	278.15 K	283.15 K	288.15 K	293.15 K	298.15 K	303.15 K	308.15 K	313.15 K	318.15 K
in 2-methoxyethanol	0.00863	0.00923	0.00969	0.0103	0.0108	0.0117	0.0127	0.0137	0.0149
in 2-propoxyethanol	0.0239	0.0248	0.025	0.0264	0.0274	0.0288	0.03	0.0314	0.0331
in ethanol	0.00376	0.00399	0.00454	0.00503	0.00566	0.00617	0.00693	0.00757	0.00848
in isopropanol	0.00531	0.00564	0.00651	0.0075	0.00865	0.00968	0.0114	0.0138	0.0158
in methanol	0.00129	0.00136	0.00146	0.00157	0.00171	0.00192	0.00211	0.00234	0.0027
in n-propanol	0.00728	0.00762	0.00827	0.00914	0.0104	0.0116	0.0131	0.0144	0.0163
